From ChEMBL document CHEMBL4138123, “Design, synthesis and biological evaluation of novel pyrazolochalcones as potential modulators of PI3K/Akt/mTOR pathway and inducers of apoptosis in breast cancer cells” (Eur J Med Chem, 2017)

Experiments:
Format in all cases: functional
[1] = test system: MOLT-4; assay: Cytotoxicity against human MOLT4 cells assessed as growth inhibition after 48 hrs by sulforhodamine B assay; settings: MOLT-4, 48 h
[2] = test system: HOP-62; assay: Cytotoxicity against human HOP62 cells assessed as growth inhibition after 48 hrs by sulforhodamine B assay; settings: HOP-62, 48 h
[3] = test system: NCI-H226; assay: Cytotoxicity against human NCI-H226 cells assessed as growth inhibition after 48 hrs by sulforhodamine B assay; settings: NCI-H226, 48 h
[4] = test system: HT-29; assay: Cytotoxicity against human HT-29 cells assessed as growth inhibition after 48 hrs by sulforhodamine B assay; settings: HT-29, 48 h
[5] = test system: OVCAR-5; assay: Cytotoxicity against human OVCAR5 cells assessed as growth inhibition after 48 hrs by sulforhodamine B assay; settings: OVCAR-5, 48 h
[6] = test system: SK-OV-3; assay: Cytotoxicity against human SKOV3 cells assessed as growth inhibition after 48 hrs by sulforhodamine B assay; settings: SK-OV-3, 48 h
[7] = test system: A498; assay: Cytotoxicity against human A498 cells assessed as growth inhibition after 48 hrs by sulforhodamine B assay; settings: A498, 48 h
[8] = test system: MCF7; assay: Cytotoxicity against human MCF7 cells assessed as growth inhibition after 48 hrs by sulforhodamine B assay; settings: MCF7, 48 h
[9] = test system: IGROV-1; assay: Cytotoxicity against human IGROV1 cells assessed as cell growth at 0.01 uM after 48 hrs by sulforhodamine B assay relative to control; settings: IGROV-1, 48 h, read-out: Activity
[10] = test system: SF-539; assay: Cytotoxicity against human SF539 cells assessed as cell growth at 0.01 uM after 48 hrs by sulforhodamine B assay relative to control; settings: SF-539, 48 h, read-out: Activity
[11] = test system: NCI-H23; assay: Cytotoxicity against human NCI-H23 cells assessed as cell growth at 0.01 uM after 48 hrs by sulforhodamine B assay relative to control; settings: NCI-H23, 48 h, read-out: Activity
[12] = test system: HOP-62; assay: Cytotoxicity against human HOP62 cells assessed as cell growth at 0.01 uM after 48 hrs by sulforhodamine B assay relative to control; settings: HOP-62, 48 h, read-out: Activity
[13] = test system: SN12C; assay: Cytotoxicity against human SN12C cells assessed as cell growth at 0.01 uM after 48 hrs by sulforhodamine B assay relative to control; settings: read-out: Activity
[14] = test system: CCRF-CEM; assay: Cytotoxicity against human CCRF-CEM cells assessed as cell growth at 0.1 uM after 48 hrs by sulforhodamine B assay relative to control; settings: read-out: Activity
[15] = test system: NCI-H522; assay: Cytotoxicity against human NCI-H522 cells assessed as cell growth at 0.1 uM after 48 hrs by sulforhodamine B assay relative to control; settings: NCI-H522, 48 h, read-out: Activity
[16] = test system: KM12; assay: Cytotoxicity against human KM12 cells assessed as cell growth at 0.1 uM after 48 hrs by sulforhodamine B assay relative to control; settings: KM12, 48 h, read-out: Activity
[17] = test system: OVCAR-4; assay: Cytotoxicity against human OVCAR4 cells assessed as cell growth at 0.1 uM after 48 hrs by sulforhodamine B assay relative to control; settings: OVCAR-4, 48 h, read-out: Activity
[18] = test system: NCI/ADR-RES; assay: Cytotoxicity against human NCI/ADR-RES cells assessed as cell growth at 0.1 uM after 48 hrs by sulforhodamine B assay relative to control; settings: read-out: Activity
[19] = test system: DU-145; assay: Cytotoxicity against human DU145 cells assessed as cell growth at 0.1 uM after 48 hrs by sulforhodamine B assay relative to control; settings: DU-145, 48 h, read-out: Activity
[20] = test system: HL-60(TB); assay: Cytotoxicity against human HL-60(TB) cells assessed as cell growth at 1 uM after 48 hrs by sulforhodamine B assay relative to control; settings: HL-60, 48 h, read-out: Activity
[21] = test system: HCC 2998; assay: Cytotoxicity against human HCC2998 cells assessed as cell growth at 1 uM after 48 hrs by sulforhodamine B assay relative to control; settings: HCC 2998, 48 h, read-out: Activity
[22] = test system: HCT-116; assay: Cytotoxicity against human HCT116 cells assessed as cell growth at 1 uM after 48 hrs by sulforhodamine B assay relative to control; settings: HCT-116, 48 h, read-out: Activity
[23] = test system: DU-145; assay: Cytotoxicity against human DU145 cells assessed as cell growth at 1 uM after 48 hrs by sulforhodamine B assay relative to control; settings: DU-145, 48 h, read-out: Activity
[24] = test system: BT-549; assay: Cytotoxicity against human BT549 cells assessed as cell growth at 1 uM after 48 hrs by sulforhodamine B assay relative to control; settings: BT-549, 48 h, read-out: Activity
[25] = test system: NCI-H460; assay: Cytotoxicity against human NCI-H460 cells assessed as cell growth at 10 uM after 48 hrs by sulforhodamine B assay relative to control; settings: NCI-H460, 48 h, read-out: Activity
[26] = test system: HCC 2998; assay: Cytotoxicity against human HCC2998 cells assessed as cell growth at 10 uM after 48 hrs by sulforhodamine B assay relative to control; settings: HCC 2998, 48 h, read-out: Activity
[27] = test system: HCT-15; assay: Cytotoxicity against human HCT15 cells assessed as cell growth at 10 uM after 48 hrs by sulforhodamine B assay relative to control; settings: HCT-15, 48 h, read-out: Activity
[28] = test system: SF-539; assay: Cytotoxicity against human SF539 cells assessed as cell growth at 10 uM after 48 hrs by sulforhodamine B assay relative to control; settings: SF-539, 48 h, read-out: Activity
[29] = test system: ACHN; assay: Cytotoxicity against human ACHN cells assessed as cell growth at 10 uM after 48 hrs by sulforhodamine B assay relative to control; settings: read-out: Activity
[30] = test system: MDA-MB-231; assay: Cytotoxicity against human MDA-MB-231 cells assessed as cell growth at 10 uM after 48 hrs by sulforhodamine B assay relative to control; settings: MDA-MB-231, 48 h, read-out: Activity
[31] = test system: HL-60(TB); assay: Cytotoxicity against human HL-60(TB) cells assessed as cell growth at 100 uM after 48 hrs by sulforhodamine B assay relative to control; settings: HL-60, 48 h, read-out: Activity
[32] = test system: HOP-62; assay: Cytotoxicity against human HOP62 cells assessed as cell growth at 100 uM after 48 hrs by sulforhodamine B assay relative to control; settings: HOP-62, 48 h, read-out: Activity
[33] = test system: NCI-H460; assay: Cytotoxicity against human NCI-H460 cells assessed as cell growth at 100 uM after 48 hrs by sulforhodamine B assay relative to control; settings: NCI-H460, 48 h, read-out: Activity
[34] = test system: SK-MEL-28; assay: Cytotoxicity against human SK-MEL-28 cells assessed as cell growth at 100 uM after 48 hrs by sulforhodamine B assay relative to control; settings: SK-MEL-28, 48 h, read-out: Activity
[35] = test system: ACHN; assay: Cytotoxicity against human ACHN cells assessed as cell growth at 100 uM after 48 hrs by sulforhodamine B assay relative to control; settings: read-out: Activity
[36] = test system: DU-145; assay: Cytotoxicity against human DU145 cells assessed as cell growth at 100 uM after 48 hrs by sulforhodamine B assay relative to control; settings: DU-145, 48 h, read-out: Activity

COc1ccc(-c2cc(/C=C/C(=O)c3ccc(N)cc3)[nH]n2)cc1OC showed a GI50 [1] of 3.11 µM, a TGI [1] of 16.5 µM and a CC50 ([1]; read-out: LC50 (the source's name)) of over 100 µM. The GI50 [2] was 2.8 µM, the LC50 [2] was 32 µM and the TGI [2] was 9.67 µM. It also gave a GI50 [3] of 2.32 µM, an LC50 (concentration killing 50% of cells) [3] of 76.2 µM and a TGI [3] of 7.38 µM. It also gave a GI50 [4] of 2.6 µM, an LC50 [4] of 58.9 µM and a TGI [4] of 6.91 µM. It also gave a GI50 [5] of 2.62 µM, an LC50 [5] of 36.3 µM and a TGI [5] of 7.94 µM. For the same compound, the GI50 [6] was 4.86 µM, the LC50 [6] was 41.3 µM and the TGI [6] was 16.8 µM. The GI50 [7] was 2.37 µM, the LC50 [7] was 26.2 µM and the TGI [7] was 7.09 µM. The GI50 [8] was 2.28 µM, the LC50 [8] was 71.2 µM and the TGI [8] was 8.48 µM. For the same compound, the growth at 0.01 µM [9] was 106%, the growth at 0.01 µM [10] was 93% and the growth at 0.01 µM [11] was 103%. For the same compound, the growth at 0.01 µM [12] was 83%, the growth at 0.01 µM [13] was 101% and the growth at 0.1 µM [14] was 97%. The growth at 0.1 µM [15] was 95%, the growth at 0.1 µM [16] was 104% and the growth at 0.1 µM [17] was 90%. For the same compound, the growth at 0.1 µM [18] was 104%, the growth at 0.1 µM [19] was 110% and the growth at 1 µM [20] was 97%. The growth at 1 µM [21] was 105%, the growth at 1 µM [22] was 87% and the growth at 1 µM [23] was 97%. It also gave a growth at 1 µM [24] of 80%, a growth at 10 µM [25] of -49% and a growth at 10 µM [26] of -75%. For the same compound, the growth at 10 µM [27] was -27%, the growth at 10 µM [28] was -73% and the growth at 10 µM [29] was -82%. For the same compound, the growth at 10 µM [30] was 24%, the growth at 100 µM [31] was 3% and the growth at 100 µM [32] was -98%. It also gave a growth at 100 µM [33] of -76%, a growth at 100 µM [34] of -93% and a growth at 100 µM [35] of -95%. It also gave a growth at 100 µM [36] of -100%.
